Key:
HT1080 cells [1] = assay: DNA (pCMV-SPORT-βgal) transfection into HT1080 cells: β-gal activity; assay type: cell-based
Excerpt: (§1) The procedure of Test Example 5 was repeated, except that HeLa cells were replaced with HT1080 cells.
(§2) The procedure of Test Example 7 was repeated, except that HeLa cells were replaced with HT1080 cells.

HeLa cells [2] = assay: Cytotoxicity score under microscope after DNA transfection, HeLa cells; assay type: cell-based
Description: (§4) HeLa cells were inoculated into a 96-well plate (7,500 cells/100 μL/well), followed by culturing for about 24 hours. DNA (pCMV-SPORT-βgal) was diluted with a DMEM medium, to thereby prepare a DNA-diluted solution having a DNA concentration of 8 μg/mL (for the case of 200 ng/well). […] The thus-obtained solution or Lipofectamine 2000 as a positive control (product of Invitrogen) was diluted with a DMEM medium so that the amount of the reconstituted liposome solution or Lipofectamine 2000 added to cells was “Amount of liposomes added (μL/well)” shown in Table 9 or 10. Immediately after dilution, the DNA-diluted solution (25 μL) was added to and mixed with the liposome-diluted solution (25 μL), and the mixture was allowed to stand still at room temperature for 30 minutes, to thereby form a DNA/liposome complex. The DNA/liposome complex (50 μL) was added to the inoculated HeLa cells (about 70 to about 90% confluent), to thereby initiate transfection. After culturing at 37° C. and 5% CO2 for one hour, a 10% FBS/DMEM medium (100 μL) was added to the culture liquid, followed by culturing at 37° C. and 5% CO2 for about 21 hours.
(§5) Each of the enhancers shown in Table 13 was diluted with a DMEM medium to different concentrations so that the amount of the enhancer finally added to cells was “Enhancer amount (μg/well)” shown in Table 13. […] The thus-diluted liposome solution was added to an equiamount of the above-diluted enhancer, followed by incubation at room temperature for 20 minutes. […] Subsequently, cytotoxicity was evaluated according to the aforementioned scores, and determination of β-gal activity, quantitative determination of protein, and viable cell counting were carried out.

HT1080 cells [3] = assay: Viable cell counting (WST-1), cell survival rate, HT1080 cells; assay type: cell-based
Description: (§3) Viable cell counting was carried out by means of a Cell Counting Kit (product of Dojindo Laboratories) based on WST-1 assay. […] Thereafter, absorbance was measured at 450 nm. A cell count vs. A450 standard curve was prepared on the basis of a separately prepared dilution series of different numbers of inoculated cells, and the number of viable cells was estimated by use of the standard curve.
as §1, §2

HT1080 cells [4] = assay: Cytotoxicity score under microscope after DNA transfection, HT1080 cells; assay type: cell-based; design: scale not given here
Excerpt: as §1, §2

HeLa cells [5] = assay: DNA (pCMV-SPORT-βgal) transfection into HeLa cells: β-gal activity; conditions: HeLa
Description: as §4
The culture supernatant was removed, and the cells were washed with PBS(−). Thereafter, determination of β-galactosidase (hereinafter may be abbreviated as “β-gal”) activity, quantitative determination of protein, and viable cell counting were carried out as described below.
After complete removal of PBS through suction, a lysis buffer (30 μL) was added to the cells, and the mixture was stirred and then allowed to stand still at −80° C. for 30 minutes or longer for freezing. After rapid thawing in a water bath at 37° C., the mixture was again allowed to stand still at −80° C. for 30 minutes or longer for freezing, followed by rapid thawing in a water bath at 37° C. Thereafter, centrifugation was carried out (2,000 g×10 minutes), and the resultant supernatant (sample) (10 μL) was added to a 96-well microplate.
Determination of β-gal activity was carried out by means of a β-gal assay kit (product of Invitrogen). […] A 2-Me-containing cleavage buffer was added (50 μL/well) to the sample or each of the standard-diluted solutions (10 μL), and 4 mg/mL aqueous ONPG solution was added (17 μL/well), followed by incubation at 37° C. for 30 minutes. After completion of incubation, a stop buffer was added (120 μL/well) for termination of reaction, and absorbance was measured at 405 nm.
as §5

HeLa cells [6] = assay: Viable cell counting (WST-1), cell survival rate, HeLa cells; assay type: cell-based
Description: as §3

[7] = Formulation Example 4 0.38 μL/well, enhancer 0.625 μg/well
[8] = Formulation Example 4 0.38 μL/well, enhancer 1.25 μg/well
[9] = Formulation Example 4 0.38 μL/well, enhancer 2.5 μg/well
[10] = Formulation Example 4 0.38 μL/well, enhancer 5 μg/well
[11] = Formulation Example 4 0.38 μL/well, enhancer 10 μg/well
[12] = Formulation Example 4 0.75 μL/well, enhancer 0.625 μg/well
[13] = Formulation Example 4 0.75 μL/well, enhancer 1.25 μg/well
[14] = Formulation Example 4 0.75 μL/well, enhancer 2.5 μg/well
[15] = Formulation Example 4 0.75 μL/well, enhancer 5 μg/well
[16] = Formulation Example 4 0.75 μL/well, enhancer 10 μg/well

Substance: poly L-lysine
- β-gal activity (HT1080 cells [1]; [7]): 76.7 mU/well
- β-gal activity (HT1080 cells [1]; [8]): 49.5 mU/well
- β-gal activity (HT1080 cells [1]; [9]): 25.7 mU/well
- β-gal activity (HT1080 cells [1]; [10]): 12.2 mU/well
- β-gal activity (HT1080 cells [1]; [11]): 8.8 mU/well
- β-gal activity (HT1080 cells [1]; [12]): 98.0 mU/well
- β-gal activity (HT1080 cells [1]; [13]): 93.8 mU/well
- β-gal activity (HT1080 cells [1]; [14]): 59.2 mU/well
- β-gal activity (HT1080 cells [1]; [15]): 42.7 mU/well
- β-gal activity (HT1080 cells [1]; [16]): 25.3 mU/well
- Cytotoxicity score (HeLa cells [2]; [7]): 0.5
- Cytotoxicity score (HeLa cells [2]; [8]): 0.0
- Cytotoxicity score (HeLa cells [2]; [9]): 0.0
- Cytotoxicity score (HeLa cells [2]; [10]): 0.5
- Cytotoxicity score (HeLa cells [2]; [11]): 0.5
- Cytotoxicity score (HeLa cells [2]; [12]): 1.0
- Cytotoxicity score (HeLa cells [2]; [13]): 0.5
- Cytotoxicity score (HeLa cells [2]; [14]): 0.0
- Cytotoxicity score (HeLa cells [2]; [15]): 0.0
- Cytotoxicity score (HeLa cells [2]; [16]): 0.5
- Cell survival rate (HT1080 cells [3]; [7]): 53%
- Cell survival rate (HT1080 cells [3]; [8]): 72%
- Cell survival rate (HT1080 cells [3]; [9]): 78%
- Cell survival rate (HT1080 cells [3]; [10]): 65%
- Cell survival rate (HT1080 cells [3]; [11]): 80%
- Cell survival rate (HT1080 cells [3]; [12]): 62%
- Cell survival rate (HT1080 cells [3]; [13]): 75%
- Cell survival rate (HT1080 cells [3]; [14]): 82%
- Cell survival rate (HT1080 cells [3]; [15]): 86%
- Cell survival rate (HT1080 cells [3]; [16]): 82%
- Cytotoxicity score (HT1080 cells [4]; [7]): 2.0
- Cytotoxicity score (HT1080 cells [4]; [8]): 2.0
- Cytotoxicity score (HT1080 cells [4]; [9]): 1.0
- Cytotoxicity score (HT1080 cells [4]; [10]): 0.5
- Cytotoxicity score (HT1080 cells [4]; [11]): 1.0
- Cytotoxicity score (HT1080 cells [4]; [12]): 2.5
- Cytotoxicity score (HT1080 cells [4]; [13]): 2.0
- Cytotoxicity score (HT1080 cells [4]; [14]): 1.5
- Cytotoxicity score (HT1080 cells [4]; [15]): 0.5
- Cytotoxicity score (HT1080 cells [4]; [16]): 1.0
- β-gal activity (HeLa cells [5]; [7]): 23.9 mU/well
- β-gal activity (HeLa cells [5]; [8]): 3.4 mU/well
- β-gal activity (HeLa cells [5]; [9]): 0.6 mU/well
- β-gal activity (HeLa cells [5]; [10]): 0.6 mU/well
- β-gal activity (HeLa cells [5]; [11]): 0.1 mU/well
- β-gal activity (HeLa cells [5]; [12]): 54.1 mU/well
- β-gal activity (HeLa cells [5]; [13]): 6.6 mU/well
- β-gal activity (HeLa cells [5]; [14]): 1.5 mU/well
- β-gal activity (HeLa cells [5]; [15]): 0.7 mU/well
- β-gal activity (HeLa cells [5]; [16]): 0.2 mU/well
- Cell survival rate (HeLa cells [6]; [7]): 62%
- Cell survival rate (HeLa cells [6]; [8]): 71%
- Cell survival rate (HeLa cells [6]; [9]): 70%
- Cell survival rate (HeLa cells [6]; [10]): 70%
- Cell survival rate (HeLa cells [6]; [11]): 76%
- Cell survival rate (HeLa cells [6]; [12]): 73%
- Cell survival rate (HeLa cells [6]; [13]): 94%
- Cell survival rate (HeLa cells [6]; [14]): 99%
- Cell survival rate (HeLa cells [6]; [15]): 97%
- Cell survival rate (HeLa cells [6]; [16]): 99%

From patent US8920832B2, “Composition for nucleic acid transfection” (Hokkaido System Science Co., Ltd., priority 2006, dated 2014)
